Measurements taken from ChEMBL document CHEMBL1201862, “PubChem BioAssay data set” (2004).
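Interpolation was linear, between the two tested concentrations surrounding the appropriate level; five concentrations were tested over 48 hours in 96-well plates. GI50 marks 50% less growth.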 The source made the active and inactive calls. No stated cut-off is given here; in the data, active = GI50 up to about 1.1 µM and inactive = higher.

Tests used:
Test in all cases: NCI-60 cell line screen, 48 h
HL-60 = test system: HL-60
T47D = test system: T47D
Malme-3M = test system: Malme-3M
DU-145 = test system: DU-145
ACHN = test system: ACHN
EKVX = test system: EKVX
A549 = test system: A549
UO-31 = test system: UO-31
OVCAR-5 = test system: OVCAR-5
OVCAR-4 = test system: OVCAR-4
MDA-MB-231 = test system: MDA-MB-231
RXF 393 = test system: RXF 393
OVCAR-8 = test system: OVCAR-8
TK-10 = test system: TK-10
LOX IMVI = test system: LOX IMVI
SF-295 = test system: SF-295
SK-MEL-2 = test system: SK-MEL-2
NCI-H226 = test system: NCI-H226
IGROV-1 = test system: IGROV-1
HCT-116 = test system: HCT-116
SNB-75 = test system: SNB-75
786-0 = test system: 786-0
SK-OV-3 = test system: SK-OV-3
SF-268 = test system: SF-268
SK-MEL-5 = test system: SK-MEL-5
SN12C = test system: SN12C
HCT-15 = test system: HCT-15
HOP-62 = test system: HOP-62
Hs-578T = test system: Hs-578T
NCI-H460 = test system: NCI-H460
UACC-62 = test system: UACC-62
SNB-19 = test system: SNB-19
MCF7 = test system: MCF7
NCI/ADR-RES = test system: NCI/ADR-RES
HT-29 = test system: HT-29
NCI-H23 = test system: NCI-H23
COLO 205 = test system: COLO 205
CAKI-1 = test system: CAKI-1
UACC-257 = test system: UACC-257
KM12 = test system: KM12
MOLT-4 = test system: MOLT-4
A498 = test system: A498
SF-539 = test system: SF-539
PC-3 = test system: PC-3
M14 = test system: M14
HOP-92 = test system: HOP-92
NCI-H522 = test system: NCI-H522
MDA-N = test system: MDA-N
RPMI-8226 = test system: RPMI-8226
CCRF-CEM = test system: CCRF-CEM
MDA-MB-435 = test system: MDA-MB-435
HCC 2998 = test system: HCC 2998

## C=CCCCN(C(=O)c1ccccc1)c1ccc(C(=O)OC)o1
HL-60
  GI50: 19.3 µM (inactive)
T47D
  GI50: 34 µM (inactive)
Malme-3M
  GI50: > 100 µM (inactive)
DU-145
  GI50: > 100 µM (inactive)
ACHN
  GI50: > 100 µM (inactive)
EKVX
  GI50: > 100 µM (inactive)
A549
  GI50: > 100 µM (inactive)
UO-31
  GI50: > 100 µM (inactive)
OVCAR-5
  GI50: > 100 µM (inactive)
OVCAR-4
  GI50: > 100 µM (inactive)
MDA-MB-231
  GI50: > 100 µM (inactive)
RXF 393
  GI50: > 100 µM (inactive)
OVCAR-8
  GI50: > 100 µM (inactive)
TK-10
  GI50: > 100 µM (inactive)
LOX IMVI
  GI50: > 100 µM (inactive)
SF-295
  GI50: > 100 µM (inactive)
SK-MEL-2
  GI50: > 100 µM (inactive)
NCI-H226
  GI50: > 100 µM (inactive)
IGROV-1
  GI50: > 100 µM (inactive)
HCT-116
  GI50: 78 µM (inactive)
SNB-75
  GI50: > 100 µM (inactive)
786-0
  GI50: > 100 µM (inactive)
SK-OV-3
  GI50: > 100 µM (inactive)
SF-268
  GI50: > 100 µM (inactive)
SK-MEL-5
  GI50: 31 µM (inactive)
SN12C
  GI50: > 100 µM (inactive)
HCT-15
  GI50: > 100 µM
HOP-62
  GI50: > 100 µM (inactive)
Hs-578T
  GI50: > 100 µM (inactive)
NCI-H460
  GI50: > 100 µM (inactive)
UACC-62
  GI50: > 100 µM (inactive)
SNB-19
  GI50: > 100 µM (inactive)
MCF7
  GI50: > 100 µM (inactive)
NCI/ADR-RES
  GI50: 52.5 µM (inactive)
HT-29
  GI50: > 100 µM (inactive)
NCI-H23
  GI50: > 100 µM (inactive)
COLO 205
  GI50: 81.1 µM (inactive)
CAKI-1
  GI50: > 100 µM (inactive)
UACC-257
  GI50: > 100 µM (inactive)
KM12
  GI50: 95.1 µM (inactive)
MOLT-4
  GI50: 91.4 µM (inactive)
A498
  GI50: > 100 µM (inactive)
SF-539
  GI50: > 100 µM (inactive)
PC-3
  GI50: 83.8 µM (inactive)
M14
  GI50: > 100 µM (inactive)
HOP-92
  GI50: > 100 µM (inactive)
NCI-H522
  GI50: 64.3 µM (inactive)
MDA-N
  GI50: 51.9 µM (inactive)

## CC(=O)O[C@H]1C(=O)[C@@]2(C)C(C(OC(=O)c3ccccc3)[C@]3(O)CC(OC(=O)[C@H](OC(=O)CCC(=O)O)C(NC(=O)c4ccccc4)c4ccccc4)C(C)=C1C3(C)C)C1(OC(C)=O)COC1C[C@@H]2O (stereo partly drawn)
HL-60
  GI50: < 0.01 µM (active)
T47D
  GI50: 0.0272 µM (active)
RPMI-8226
  GI50: < 0.01 µM (active)
A549
  GI50: 0.0366 µM (active)
OVCAR-4
  GI50: 31.8 µM (inactive)
TK-10
  GI50: 0.136 µM (active)
LOX IMVI
  GI50: < 0.0105 µM (active)
NCI-H226
  GI50: 0.0122 µM (active)
IGROV-1
  GI50: < 0.0119 µM (active)
HCT-116
  GI50: < 0.01 µM (active)
SF-268
  GI50: 0.0252 µM (active)
SK-MEL-5
  GI50: < 0.0159 µM (active)
HCT-15
  GI50: 0.995 µM
Hs-578T
  GI50: < 0.0175 µM (active)
NCI-H460
  GI50: < 0.0132 µM (active)
UACC-62
  GI50: < 0.0113 µM (active)
SNB-19
  GI50: 0.0506 µM (active)
MCF7
  GI50: < 0.01 µM (active)
NCI-H23
  GI50: 0.0193 µM (active)
CCRF-CEM
  GI50: < 0.01 µM (active)
CAKI-1
  GI50: 5.3 µM (inactive)
MDA-MB-435
  GI50: < 0.01 µM (active)
MOLT-4
  GI50: < 0.0153 µM (active)
A498
  GI50: < 0.0118 µM (active)
SF-539
  GI50: < 0.01 µM (active)
PC-3
  GI50: < 0.0128 µM (active)
HOP-92
  GI50: 0.656 µM (active)
NCI-H522
  GI50: < 0.01 µM (active)
HCC 2998
  GI50: 0.0302 µM (active)
MDA-N
  GI50: < 0.01 µM (active)
